Reference: patent US20120225909A1, “INDAZOLE ANALOG” (priority 2009, published 2012)
Read-outs that look alike come from different tables or passages of the source.

Columns and labels:
[1] = target: T1, human β1-adrenergic receptor (Homo sapiens, UniProt P08588); test: Test Case 2-B: human β1-adrenergic receptor agonist activity; format: cell-based; conditions: read-out: β1 receptor I.A.
T1 construct: expressed in transfected cells; host or cells: CHO (Chinese hamster ovary) cells, pcDNA3
Experimental: Measurement of Human β1-Adrenergic Receptor Agonist Activity
The human β1-adrenergic receptor agonist activity is measured by the same method as in Test Case 1-B using CHO (Chinese hamster ovary) cells transfected by a human β1 gene inserted in pcDNA3 (Invitrogen).

[2] = target: T2, human α1A-adrenergic receptor (Homo sapiens, UniProt P35348); test: Test Case 4-A: human α1A-adrenergic receptor agonist activity (HEK293, Ca flux, Fura-2); format: cell-based; design: expressed in transfected cells; host or cells: HEK293 cells, pcDNA3.1
T2 sequence (P35348 1-466): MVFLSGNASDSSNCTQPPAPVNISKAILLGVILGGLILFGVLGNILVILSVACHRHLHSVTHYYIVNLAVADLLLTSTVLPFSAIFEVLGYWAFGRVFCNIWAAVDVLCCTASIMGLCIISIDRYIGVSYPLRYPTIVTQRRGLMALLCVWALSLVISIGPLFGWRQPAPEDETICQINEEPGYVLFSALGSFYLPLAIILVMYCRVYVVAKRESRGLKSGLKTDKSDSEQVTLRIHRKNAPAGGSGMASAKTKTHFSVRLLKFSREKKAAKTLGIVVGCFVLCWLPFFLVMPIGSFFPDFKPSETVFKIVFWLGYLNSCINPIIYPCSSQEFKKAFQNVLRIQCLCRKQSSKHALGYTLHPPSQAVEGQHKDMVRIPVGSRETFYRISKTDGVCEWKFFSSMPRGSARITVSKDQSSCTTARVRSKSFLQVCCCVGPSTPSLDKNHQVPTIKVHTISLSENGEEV
Procedure, shortened: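 Fura-2AM-loaded HEK293 cells transfected with human α1A were preincubated for 180 s. Compound (sample plate 10^−5 to 10^−12 M) was added after ~30 s of 340/380 nm excitation ratio reading (500 nm emission, 2-s intervals), followed by 270 s more reading. Ca flux is the peak height: maximum ratio after addition minus the pre-addition ratio.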

[3] = tested on: Male C57BL/6 Cr mice; test: Test Case 10: mouse piloerection test; format: in vivo; conditions: 10 mg/kg i.v.
[4] = target: T3, human β3-adrenergic receptor (Homo sapiens, UniProt P13945); test: Test Case 1-B: human β3-adrenergic receptor agonist activity (cAMP-Screen, 96-well); format: cell-based
T3 construct: A full-length human β3 gene is obtained from a human genomic library (made by Clontech) using this as the probe; expressed in transfected cells; host or cells: CHO (Chinese hamster ovary) cells, pcDNA3
T3 sequence (P13945 whole entry): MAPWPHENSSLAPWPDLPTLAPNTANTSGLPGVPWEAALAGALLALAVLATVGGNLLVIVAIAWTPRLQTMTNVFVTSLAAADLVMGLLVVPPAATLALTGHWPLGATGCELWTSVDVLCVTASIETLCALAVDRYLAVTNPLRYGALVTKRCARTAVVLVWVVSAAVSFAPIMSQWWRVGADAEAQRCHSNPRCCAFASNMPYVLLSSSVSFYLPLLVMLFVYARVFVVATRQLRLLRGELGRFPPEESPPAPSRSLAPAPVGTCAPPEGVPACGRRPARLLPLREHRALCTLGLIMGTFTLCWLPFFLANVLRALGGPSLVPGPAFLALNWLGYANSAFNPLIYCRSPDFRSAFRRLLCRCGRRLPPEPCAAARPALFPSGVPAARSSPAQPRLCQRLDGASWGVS
Procedure, shortened: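 CHO cells stably transfected with full-length human β3 gene, serum-starved 15 min, then exposed to serially diluted compound in Ham's F-12 with 100 mmol/L HEPES and 1 mmol/L IBMX (diluent concentrations) for 30 min. Cells lysed 30 min at 37 °C; cAMP quantified by cAMP-Screen immunoassay.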

[5] = HEK293; read-out: α1A receptor I.A.
[6] = 0.5 h; read-out: β3 receptor I.A.

T1 sequence (P08588 whole entry): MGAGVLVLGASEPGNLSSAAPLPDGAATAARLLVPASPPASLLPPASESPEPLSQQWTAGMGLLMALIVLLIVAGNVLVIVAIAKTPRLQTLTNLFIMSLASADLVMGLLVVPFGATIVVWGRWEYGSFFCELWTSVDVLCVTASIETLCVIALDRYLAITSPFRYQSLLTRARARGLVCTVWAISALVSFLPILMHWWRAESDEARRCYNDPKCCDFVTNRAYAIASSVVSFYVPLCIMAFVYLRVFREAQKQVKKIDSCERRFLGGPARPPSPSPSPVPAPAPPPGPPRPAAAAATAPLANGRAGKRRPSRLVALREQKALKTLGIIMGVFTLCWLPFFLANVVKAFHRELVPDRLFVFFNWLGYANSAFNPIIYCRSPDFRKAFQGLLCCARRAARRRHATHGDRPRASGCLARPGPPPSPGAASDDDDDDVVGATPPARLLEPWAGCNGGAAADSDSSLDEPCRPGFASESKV

SMILES	Emax [1] [%]	Emax ([2]; HEK293, read-out: α1A receptor I.A.) [%]	number of experimental animals matching Score 0 (no piloerection) ([3]; n=4, observation time 5 min)	number of experimental animals matching Score 0 (no piloerection) ([3]; n=4, observation time 15 min)	number of experimental animals matching Score 0.5 ([3]; n=4, observation time 15 min)	number of experimental animals matching Score 0 (no piloerection) ([3]; n=4, observation time 30 min)	number of experimental animals matching Score 0.5 ([3]; n=4, observation time 30 min)	number of experimental animals matching Score 0 (no piloerection) ([3]; n=4, observation time 60 min)	Emax ([4]; 0.5 h, read-out: β3 receptor I.A.) [%]	EC50 ([4]; Test Case 1-B; CHO cells, cAMP) [nM]	Emax [2, 5] [%]	number of experimental animals matching Score 0.5 ([3]; n=4, observation time 60 min)	Emax [4, 6] [%]
Cc1n[nH]c2cc(OCCNC[C@H](O)c3cccc(NS(=O)(=O)C4CCC4)c3)ccc12 [ex3, (R)—N-(3-(1-hydroxy-2-(2-(3-methylindazol-6-yloxy)ethylamino)ethyl)phenyl)cyclobutanesulfonamide]	4	0	4	3	1	3	1	4	105	17			
O=S(=O)(Nc1cccc([C@@H](O)CNCCOc2ccc3c(OC(F)F)n[nH]c3c2)c1)C1CC1 [ex4, (R)—N-(3-(2-(2-(3-(difluoromethoxy)-indazol-6-yloxy)ethylamino)-1-hydroxyethyl)phenyl)cyclopropanesulfonamide]	2		4	4		3	1	3		38	0	1	77
Cc1n[nH]c2cc(OCCNC[C@H](O)c3cccc(NS(=O)(=O)c4ccccc4F)c3)ccc12 [ex235, (R)-2-fluoro-N-(3-(1-hydroxy-2-(2-(3-methylindazol-6-yloxy)ethylamino)ethyl)phenyl)benzenesulfonamide]	16		4	4		4		4		28	0		113
